Assay results: publication PMC9780888, “4-Isobutylmethcathinone—A Novel Synthetic Cathinone with High In Vitro Cytotoxicity and Strong Receptor Binding Preference of Enantiomers” (Pharmaceuticals, 2022)
Where a name gives a salt, the structure may show the parent alone.

Biological target: T1, dopamine receptor DAR4 (Homo sapiens, UniProt P21917)
T1 construct: host or cells: HTLA (HEK 293-derived)
T1 sequence (P21917 1-419): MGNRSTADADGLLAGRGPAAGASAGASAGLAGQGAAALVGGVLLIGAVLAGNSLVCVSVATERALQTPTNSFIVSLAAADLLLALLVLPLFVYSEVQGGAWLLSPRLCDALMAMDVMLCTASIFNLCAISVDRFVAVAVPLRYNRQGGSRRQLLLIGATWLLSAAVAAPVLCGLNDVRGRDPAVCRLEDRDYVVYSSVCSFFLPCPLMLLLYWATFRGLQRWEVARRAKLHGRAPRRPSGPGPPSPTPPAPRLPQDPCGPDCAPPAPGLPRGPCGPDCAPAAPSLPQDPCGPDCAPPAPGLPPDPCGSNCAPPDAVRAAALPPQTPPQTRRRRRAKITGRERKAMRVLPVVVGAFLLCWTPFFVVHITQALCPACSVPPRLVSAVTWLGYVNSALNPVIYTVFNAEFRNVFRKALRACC
Assay: PRESTO-Tango β-arrestin 2 recruitment assay, DAR4
Assay type: cell-based
Settings: DAR4, 0-500 nM
Text: However, binding to a specific receptor/transporter and, thus, the mechanism of action of a given cathinone always depends on the specific structure of the evaluated compound [37]. In this study, the binding activity of IBMcat and its enantiomers was verified by PRESTO-Tango (parallel receptor expression and screening via transcriptional output, with transcriptional activation following arrestin-2 translocation) assay using the HTLA cell line stably producing β-arrestin-2 in a fusion with TEV and luciferase production driven by tTA. For this purpose, the HTLA cells were transiently transfected with plasmid DNA encoding the dopamine receptors type 1-4 (DAR1-4), which also contain the TEV protease cleavage site followed by tTA at the 3’-end (DAR1-Tango, DAR2-Tango, DAR3-Tango, DAR4-Tango). In the case of the receptor activation by a ligand, in transfected cells, the receptor is desensitized by β-arrestin fused to TEV protease. This brings the TEV protease close to the site that specifically cleaves and, thus, the transcription factor can be cleaved. The transcription factor then translocates to the cell nucleus, in which it triggers the transcription of the target gene for luciferase production which can be determined by the light emitted from luciferin conversion to oxyluciferin. Here, the pronounced luminescence was recorded for all DAR1-4 types in HTLA cells treated with IBMCat and its enantiomers (Figure 8).
The HTLA cell line was used for the PRESTO-Tango β-arrestin recruitment assay. […]
The transfected HTLA cells were incubated for 24 h, and then 1 × 10^4 cells were seeded per well of a white 96-well clear bottom plate (Brand, Germany) in 40 μL of DMEM with 1% charcoal-stripped FBS (Thermo Fisher Scientific, USA). […] After 5 min., the luminescence was measured using a multi-mode microplate reader SpectraMax iD5 (Molecular Devices, San Jose, CA, USA) measuring the entire wavelength spectrum. All samples were measured in quadruplicates. The data were evaluated by Prism 7 software (GraphPad, San Jose, CA, USA).

Structure (SMILES)	maximum increase in RLU compared to untreated control
CNC(C)C(=O)c1ccc(CC(C)C)cc1.Cl (stereo not drawn) [IBMcat, 4-isobutylmethcathinone hydrochloride]	2 fold
CN[C@H](C)C(=O)c1ccc(CC(C)C)cc1 [R-IBMCat]	1.5 fold
CN[C@@H](C)C(=O)c1ccc(CC(C)C)cc1 [S-IBMCat, (S)-4-isobutylmethcathinone hydrochloride]	2 fold
